“Also recorded” adds a separate entry of the source.
What was measured:
HSA [1] = target: T1, HSA (Homo sapiens, UniProt P02768); test: Competitive probe experiment (warfarin, ibuprofen, lidocaine); type: binding
T1 construct: HSA (≥96%) and six PFAS were all purchased from Aladdin Chemicals (Shanghai, China); purchased Aladdin Chemicals (Shanghai, China)
From the text: Competitive probe experiments are commonly used to identify specific binding sites in the structure of proteins. Three probe molecules known to bind to distinct binding sites on HSA were selected: warfarin (subdomain IIA), ibuprofen (subdomain IIIA), and lidocaine (subdomain IIB). These probe molecules would compete with PFAS for the same protein sites when binding with HSA. The potential binding sites can be inferred by monitoring and comparing changes in fluorescence intensity when probe molecules are present.

[2] = target: T2, Human Serum Albumin (HSA) (Homo sapiens, UniProt P02768); test: Fluorescence quenching of HSA by PFAS (Stern–Volmer, double logarithmic and Van't Hoff analysis); type: binding; conditions: for quenching of HSA fluorescence intensity: PFAS 1.8 × 10^−5 mol·L^−1, HSA 1 × 10^−6 mol·L^−1, 298 K; for Kq (quenching rate constant): τ0 taken as 10^−8 s; for ΔH / ΔS: Van't Hoff, 298–310 K; for affinity for HSA: fluorescence quenching experiments; for main interaction force from thermodynamic analysis: signs of ΔH and ΔS
T2 construct: HSA (≥96%) and six PFAS were all purchased from Aladdin Chemicals (Shanghai, China); purchased Aladdin Chemicals (Shanghai, China)
Protocol: Fluorescence quenching experiments greatly benefit studies on the interactions between ligands and proteins. Initially, 3 mL of HSA stock solution was put into a 10 mm square quartz cuvette. Following that, PFAS stock solution was gradually added to achieve various final concentrations, namely 0, 3, 6, 9, 12, 15, 18 × 10^−6 mol·L^−1. By incrementally increasing the molar ratio of PFAS vs. HSA up to 18, their binding characteristics can be better investigated.
A thermostat (TR-01A, Bishui Corp, Beijing, China) was used to precisely control the solution temperature, which was set at 298, 304, and 310 K. This device includes a temperature controller and a metal heating cuvette module in conjunction with a fluorometer. This thermostat has a temperature range of 20–60 °C (293–333 K) and an accuracy of 0.1 °C Celsius. This step is critical for keeping the experimental conditions stable. Following that, the samples were fluorescence-scanned with a fluorometer (Cary Eclipse, Agilent, CA, USA). The excitation wavelength was set at 275 nm to efficiently stimulate tryptophan (Trp) and tyrosine (Tyr) residues. Additional test parameters include an emission of 275–500 nm, scanning rate of 1200 nm/min and PTV voltage of 700 v. Fluorescence quenching experiments were repeated three times, and the average values were taken for further calculation.
Fluorescence internal filtration (IFE) refers to the phenomenon where the fluorescence intensity decreases during fluorescence measurement due to the absorption of excitation or emission light by sample components (small molecules or proteins) in solution [19, 20]. This phenomenon is more obvious in the samples with a high concentration of adsorbent. A fluorescence correction formula was used in this study to correct the IFE effect on the data, as follows: Fcorr=Fobs×10^Aex+Aem/2 where Fcorr and Fobs are corrected and observed fluorescence emission intensities, respectively, Aex and Aem are UV-vis absorbances at the excitation and emission wavelengths.
The quenching constant can be calculated using the Stern–Volmer Equation (3). The results are shown in Table 2 and Figure 1: F0/F=1+Kqτ0=1+KsvQ where F0 and F refer to HSA fluorescence intensities without and with the quencher (PFAS solution); Kq is the biomacromolecule’s quenching rate constant; τ0 is the average fluorescence lifetime of the fluorescent molecule when the quencher PFAS is absent, usually taken as 10^−8 s; [Q] is the PFAS concentration; Ksv is the Stern–Volmer quenching constant; F0/F is the vertical axis; the Stern–Volmer curves of this system are 298, 304, and 310 K.
The double logarithmic formula can be used to calculate the binding constants and binding site numbers of HSA–PFAS complexes: logF0−F/F=logKb+nlogQ where F0 and F are parameters representing the initial fluorescence intensity and the fluorescence intensity after adding PFAS, respectively. The binding characteristics are represented by the binding constant, Kb, and the number of binding sites, n. The slope of the straight line is the number of binding sites, n, and the binding constant Kb is obtained from the exponent of the straight line’s intercept using the double logarithmic graph. Figure A2 and Table 2 show the calculation results.
The enthalpy change (∆H), entropy change (∆S), and free energy change (∆G) calculated from the Van’t Hoff equation [50] can be used to determine the type of interaction. lnKb=−ΔH/RT+ΔS/R ΔG=ΔH−TΔS=−RTlnKb where R represents the ideal gas constant (8.314 J·mol^−1·K^−1).

HSA [3] = target: T1, HSA; test: Circular dichroism (CD) spectrum, secondary structure of HSA; conditions: HSA:PFAS 1:18, 298 K; for HSA secondary structure: β-Sheet: HSA alone 4.9; for HSA secondary structure: β-Turn: HSA alone 16.9; for HSA secondary structure: Random Coil: HSA alone 36.7; for HSA secondary structure: α-Helix: HSA alone 41.6
From the text: CD measurements (190–260 nm) were taken before and after the addition of PFAS to HSA using a J-815 CD spectrometer equipped with a PMT detector (JASCO, Tokyo, Japan). The protein concentration was set at 1 × 10^−6 mol/L, with a fixed HSA-to-PFAS concentration ratio of 1:18. The scanning rate was set to 100 nm/min with 0.5 nm increments, and the photometric mode of HT. Each sample was scanned three times. The blank buffer control was automatically subtracted during the scanning process. All tests were carried out at 298 K. The CONTIN analysis method from the DichroWeb was employed to determine the contents of the protein’s secondary structure.

HSA [4] = target: T1, HSA; test: 3D-EEM fluorescence spectra of HSA–PFAS; conditions: for 3D-EEM Peak A Position λex/λem / 3D-EEM Peak B Position λex/λem / 3D-EEM Peak A Intensity F / 3D-EEM Peak B Intensity F: HSA 1 × 10^−6, PFAS 1.8 × 10^−5 mol·L^−1; for 3D-EEM Peak A Intensity F: HSA alone 673.66; for 3D-EEM Peak B Intensity F: HSA alone 996.906
Protocol: The 3D-EEM spectra were recorded using specific scanning parameters at the scanning rate of 2400 nm·min^−1, an […] with 5 nm increments, and an emission of 280–550 nm with 2 nm increments. The concentrations of PFAS and HSA were set at 18 × 10^−6 mol·L^−1 and 1 × 10^−6 mol·L^−1, respectively.

T2 sequence (P02768 25-609): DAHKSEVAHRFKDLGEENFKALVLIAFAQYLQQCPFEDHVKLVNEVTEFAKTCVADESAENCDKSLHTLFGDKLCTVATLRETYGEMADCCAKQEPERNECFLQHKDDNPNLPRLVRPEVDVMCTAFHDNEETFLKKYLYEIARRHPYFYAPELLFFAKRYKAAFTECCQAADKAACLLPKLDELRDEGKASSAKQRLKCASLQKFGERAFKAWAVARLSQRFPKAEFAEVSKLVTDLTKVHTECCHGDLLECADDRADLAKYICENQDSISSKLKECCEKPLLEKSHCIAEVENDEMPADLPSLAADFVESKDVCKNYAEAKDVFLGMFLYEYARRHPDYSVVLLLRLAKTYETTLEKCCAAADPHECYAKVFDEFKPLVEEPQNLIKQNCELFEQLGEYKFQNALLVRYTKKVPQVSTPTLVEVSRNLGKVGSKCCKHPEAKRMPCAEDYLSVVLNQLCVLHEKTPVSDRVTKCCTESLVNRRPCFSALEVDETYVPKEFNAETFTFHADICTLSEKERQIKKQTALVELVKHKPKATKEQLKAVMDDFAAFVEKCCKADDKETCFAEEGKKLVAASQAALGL
T1 sequence (P02768 25-609): as above

Row | SMILES | φ (rate of decrease in Kb) (HSA [1]; ibuprofen probe) [%] | φ (rate of decrease in Kb) (HSA [1]; lidocaine probe) [%] | φ (rate of decrease in Kb) (HSA [1]; warfarin probe) [%] | fluorescence quenching mechanism [2] | quenching of HSA fluorescence intensity [2] [%] | KSV (Stern–Volmer quenching constant) ([2]; T = 298 K) | n (number of binding sites) ([2]; T = 298 K) | ΔG ([2]; T = 298 K) [kcal/mol] | Kq (quenching rate constant) ([2]; T = 298 K) | KSV (Stern–Volmer quenching constant) ([2]; T = 304 K) | n (number of binding sites) ([2]; T = 304 K) | ΔG ([2]; T = 304 K) [kcal/mol] | Kq (quenching rate constant) ([2]; T = 304 K) | KSV (Stern–Volmer quenching constant) ([2]; T = 310 K) | n (number of binding sites) ([2]; T = 310 K) | ΔG ([2]; T = 310 K) [kcal/mol] | Kq (quenching rate constant) ([2]; T = 310 K) | ΔH [2] [kcal/mol] | ΔS [2] [J·mol^−1·K^−1] | affinity for HSA [2] | further results
1 | O=C(O)C(F)(F)C(F)(F)C(F)(F)C(F)(F)C(F)(F)C(F)(F)C(=O)O [DFSA, Dodecafluorosuberic Acid] | 25.4 | 31.7 | 93.3 | static quenching | 9.7 | 0.58 ± 0.06 × 10^4 L·mol^−1 | 0.88 ± 0.02 | -4.338 | 0.58 ± 0.06 × 10^12 L·mol^−1·s^−1 | 0.51 ± 0.04 × 10^4 L·mol^−1 | 0.98 ± 0.05 | -5.136 | 0.51 ± 0.04 × 10^12 L·mol^−1·s^−1 | 0.45 ± 0.05 × 10^4 L·mol^−1 | 1.13 ± 0.07 | -6.123 | 0.45 ± 0.05 × 10^12 L·mol^−1·s^−1 | 40.031 ± 1.02 | 622.5 ± 15.3 | low affinity | main interaction force from thermodynamic analysis [2]: hydrophobic interactions; HSA secondary structure: β-Sheet (HSA [3]): 4.0%; HSA secondary structure: β-Turn (HSA [3]): 15.8%; HSA secondary structure: Random Coil (HSA [3]): 37.0%; HSA secondary structure: α-Helix (HSA [3]): 43.2%; 3D-EEM Peak A Position λex/λem (HSA [4]): 280/336; 3D-EEM Peak B Position λex/λem (HSA [4]): 230/330; 3D-EEM Peak A Intensity F (HSA [4]): 629.75 a.u.; 3D-EEM Peak B Intensity F (HSA [4]): 839.38 a.u.
2 | O=C(O)C(F)(F)OC(F)(F)C(F)(F)OC(F)(F)C(F)(F)OC(F)(F)F [PFO3DA, Perfluoro-3,6,9-trioxadecanoic Acid] | 25.8 | 11.8 | 95.1 | static quenching | 15.3 | 1.05 ± 0.06 × 10^4 L·mol^−1 | 1.25 ± 0.03 | -7.091 | 1.05 ± 0.06 × 10^12 L·mol^−1·s^−1 | 1.03 ± 0.06 × 10^4 L·mol^−1 | 1.33 ± 0.02 | -6.479 | 1.03 ± 0.06 × 10^12 L·mol^−1·s^−1 | 0.87 ± 0.04 × 10^4 L·mol^−1 | 1.10 ± 0.03 | -6.348 | 0.87 ± 0.04 × 10^12 L·mol^−1·s^−1 | -25.471 ± 0.937 | −259.2 ± 9.4 | high affinity | main interaction force from thermodynamic analysis [2]: hydrogen bonds or van der Waals interactions; also recorded: hydrogen bonds or van der Waals forces; HSA secondary structure: β-Sheet (HSA [3]): 5.8%; HSA secondary structure: β-Turn (HSA [3]): 17.3%; HSA secondary structure: Random Coil (HSA [3]): 40.6%; HSA secondary structure: α-Helix (HSA [3]): 36.4%; 3D-EEM Peak A Position λex/λem (HSA [4]): 280/329; 3D-EEM Peak B Position λex/λem (HSA [4]): 230/325; 3D-EEM Peak A Intensity F (HSA [4]): 525.07 a.u.; 3D-EEM Peak B Intensity F (HSA [4]): 886.91 a.u.
3 | O=C(O)C(F)(F)C(F)(F)C(F)(F)C(F)(F)C(F)(F)C(F)(F)C(F)(F)C(F)(F)F [PFNA, Perfluorononanoic Acid] | 13.8 | 43.9 | 98.3 | static quenching | 30.6 | 2.52 ± 0.10 × 10^4 L·mol^−1 | 1.51 ± 0.06 | -9.398 | 2.52 ± 0.10 × 10^12 L·mol^−1·s^−1 | 2.35 ± 0.11 × 10^4 L·mol^−1 | 1.18 ± 0.03 | -7.376 | 2.35 ± 0.11 × 10^12 L·mol^−1·s^−1 | 1.27 ± 0.04 × 10^4 L·mol^−1 | 1.10 ± 0.04 | -7.087 | 1.27 ± 0.04 × 10^12 L·mol^−1·s^−1 | -66.503 ± 1.3 | −805.8 ± 13.8 | high affinity | HSA fluorescence peak position after PFAS addition (blue shift from 337 nm) ([2]; as the concentration of PFAS increases): 317 nm; main interaction force from thermodynamic analysis [2]: hydrogen bonds or van der Waals interactions; also recorded: hydrogen bonds or van der Waals forces; HSA secondary structure: β-Sheet (HSA [3]): 7.6%; HSA secondary structure: β-Turn (HSA [3]): 15.1%; HSA secondary structure: Random Coil (HSA [3]): 41.2%; HSA secondary structure: α-Helix (HSA [3]): 36.2%; 3D-EEM Peak A Position λex/λem (HSA [4]): 280/329; 3D-EEM Peak B Position λex/λem (HSA [4]): 230/310; 3D-EEM Peak A Intensity F (HSA [4]): 418.74 a.u.; 3D-EEM Peak B Intensity F (HSA [4]): 800.96 a.u.; reduction of 3D-EEM peak A intensity (HSA [4]; after binding with HSA): 37.8%; reduction of 3D-EEM peak B intensity (HSA [4]; after binding with HSA): 19.7%
